Assay results published in patent publication US9284272B2, “Inhibitors of histone methyltransferase G9a” (AbbVie Inc., priority 2014, dated 2016).
Where “and” joins values, the source holds several entries; their conditions need not be identical. Equal values may be shown once. Read-outs that look alike come from different tables or passages of the source.

Key:
[1] = Cytotoxicity, CellTiter Glo; assay type: cell-based; details: human, US2OS cells, 7-day proliferation, neural crest derived lines
[2] = Cytotoxicity, CellTiter Glo; assay type: cell-based; details: human, LNCap cells, 5-day proliferation
[3] = Cytotoxicity, CellTiter Glo; assay type: cell-based; details: human, SK-N-MC cells, 7-day proliferation, neural crest derived lines
[4] = Cytotoxicity, CellTiter Glo; assay type: cell-based; details: human, RPMI8226 cells, 5-day proliferation
[5] = Cytotoxicity, CellTiter Glo; assay type: cell-based; details: human, LN229 cells, 5-day proliferation
[6] = Cytotoxicity, CellTiter Glo; assay type: cell-based; details: human, CAPO-ES1 cells, 7-day proliferation, neural crest derived lines
[7] = Cytotoxicity, CellTiter Glo; assay type: cell-based; details: human, K562 cells, 5-day proliferation
[8] = Cytotoxicity, CellTiter Glo; assay type: cell-based; details: human, DaoY cells, 7-day proliferation, neural crest derived lines
[9] = Cytotoxicity, CellTiter Glo; assay type: cell-based; details: human, KMS11 cells, 5-day proliferation
[10] = test system: H3K9me2; assay: Cellular immunostaining (In-Cell Western), H3K9Me2 antibody immunofluorescence in PC3 cells; assay type: cell-based, human; details: for H3K9me2 % inhibition, single well of triplicate / inhibition at 0.03 µM / inhibition at 0.1 µM / inhibition at 0.3 µM / inhibition at 1 µM / inhibition at 3 µM: 72 hours; for inhibition at 0.03 µM / inhibition at 0.1 µM / inhibition at 0.3 µM / inhibition at 1 µM / inhibition at 3 µM: Homo sapiens, PC-3, 72 h
Procedure: For comparison, the known G9a inhibitor UNC0638 (see structure in FIG. 1) was evaluated in this study concurrently.
Human PC3 cells (ATCC, Manassas, Va.) were grown in RPMI+10% Fetal Bovine Serum and plated at 5,000 cells per well in a 96-well plate. The following day compounds and DMSO controls were added in triplicate at the indicated concentrations. Cells were fixed following incubation at 37° C. for 72 hours with 10% formaldehyde and then permeabilized with 0.1% Triton X-100. Cells were then washed with PBS and blocked with 0.1% BSA/PBS solution. Mouse anti-H3K9me2 (1:200, AbCam #1220, Cambridge, Mass.) and rabbit anti-Histone H3 (1:500, Cell Signaling Technology #4499, Danvers, Mass.) primary antibodies in 0.3% BSA were then added together to each well and incubated overnight at 4° C. The following day cells were washed in PBS-T (PBS with 0.1% Tween) followed by addition of anti-mouse (IR800) and anti-rabbit (IR700) secondary antibodies (LI-COR Biosciences, Lincoln, Nebr.) and incubated for one hour at room temperature. Cells were then washed with PBS-T followed by PBS and liquid was removed from all wells. The plate was scanned using both the 700 nm (anti-rabbit detection) and 800 nm (anti-mouse detection) channels on the Odyssey Imaging System (LI-COR Biosciences, Lincoln, Nebr.). Data was quantified using the LI-COR imaging suite and graphed as % inhibition H3K9me2/total H3/well compared to DMSO control wells. Wells treated in triplicate were averaged for each indicated concentration and error bars represent the standard deviation (n=3).

[11] = Cytotoxicity, CellTiter Glo; assay type: cell-based; details: human, G-401 cells, 7-day proliferation, neural crest derived lines
[12] = Cytotoxicity, CellTiter Glo; assay type: cell-based; details: human, DU145 cells, 5-day proliferation
[13] = Cytotoxicity, CellTiter Glo; assay type: cell-based; details: human, IMR-32 cells, 12-day proliferation, neural crest derived lines
[14] = Cytotoxicity, CellTiter Glo; assay type: cell-based; details: A-201 cells, 12-day proliferation, neural crest derived lines
[15] = Cytotoxicity, CellTiter Glo; assay type: cell-based; details: human, Calu6 cells, 5-day proliferation
[16] = Cytotoxicity, CellTiter Glo; assay type: cell-based; details: human, RS4;11 cells, 5-day proliferation
[17] = Cytotoxicity, CellTiter Glo; assay type: cell-based; details: human, Kasume-1 cells, 5-day proliferation
[18] = Cytotoxicity, CellTiter Glo; assay type: cell-based; details: human, MHH-65-1 cells, 7-day proliferation, neural crest derived lines
[19] = Cytotoxicity, CellTiter Glo; assay type: cell-based; details: human, MV4;11 cells, 5-day proliferation
[20] = Cytotoxicity, CellTiter Glo; assay type: cell-based; details: human, 22RV1 cells, 5-day proliferation
[21] = Cytotoxicity, CellTiter Glo; assay type: cell-based; details: human, PA-1 cells, 7-day proliferation, neural crest derived lines
[22] = Cytotoxicity, CellTiter Glo; assay type: cell-based; details: human, TC-71 cells, 7-day proliferation, neural crest derived lines
[23] = Cytotoxicity, CellTiter Glo; assay type: cell-based; details: human, L-363 cells, 5-day proliferation
[24] = Cytotoxicity, CellTiter Glo; assay type: cell-based; details: human, HL-60 cells, 5-day proliferation
[25] = Cytotoxicity, CellTiter Glo; assay type: cell-based; details: human, ZR7350 cells, 7-day proliferation, neural crest derived lines
[26] = test system: human peripheral blood mononucleated cells (PBMCs); assay: Viability of PBMCs (Caspase-Glo 3/7, CellTiter Glo); assay type: cell-based; details: 0-10 uM, 48 h
Procedure: Following treatment, Caspase 3/7 activity (i.e., a marker of apoptosis) was assessed by the Caspase-Glo 3/7 assay system (FIG. 7A), and cell viability was assessed by CellTiter Glo assay (FIG. 7B).

[27] = in vitro; assay type: cell-based; details: PH-1; 7-day proliferation, neural crest derived lines; read-out: IC50 cytotoxicity
[28] = Cytotoxicity, CellTiter Glo; assay type: cell-based; details: human, H929 cells, 5-day proliferation
[29] = Cytotoxicity, CellTiter Glo; assay type: cell-based; details: human, OPM2 cells, 5-day proliferation
[30] = Cytotoxicity, CellTiter Glo; assay type: cell-based; details: human, THP-1 cells, 5-day proliferation
[31] = Cytotoxicity, CellTiter Glo; assay type: cell-based; details: human, KMS12 cells, 5-day proliferation
[32] = Cytotoxicity, CellTiter Glo; assay type: cell-based; details: human, SKBR3 cells, 5-day proliferation

SMILES: COc1cc2c(NC3CCN(C(C)C)CC3)nc(C3CCCCC3)nc2cc1OCCCN1CCCC1 [UNC0638, reference compound]
- IC50 at 7 day [1]: 500 nM
- IC50 at 5 day [2]: 300 nM
- IC50 at 7 day [3]: 200 nM
- IC50 at 5 day [4]: 5100 nM
- IC50 at 5 day [5]: 500 nM
- IC50 at 7 day [6]: 1200 nM
- IC50 at 5 day [7]: 5300 nM
- IC50 at 7 day [8]: 100 nM
- IC50 at 5 day [9]: 4000 nM
- reduction of cellular levels of H3K9Me2 ([10]; 3 μM): ~50%
- H3K9me2 % inhibition, single well of triplicate ([10]; 0.03 uM): 17.8107% and 15.8006%
- H3K9me2 % inhibition, single well of triplicate ([10]; 0.1 uM): 27.68% and 25.03%
- H3K9me2 % inhibition, single well of triplicate ([10]; 0.3 uM): 41.05% and 40.37%
- H3K9me2 % inhibition, single well of triplicate ([10]; 1 uM): 43.21% and 47.35%
- H3K9me2 % inhibition, single well of triplicate ([10]; 3 uM): 48.22% and 49.38%
- inhibition at 0.03 µM ([10]; 0.03 uM, n=3, read-out: H3K9me2 % inhibition, average): 14.6%
- inhibition at 0.03 µM ([10]; 0.03 uM, read-out: H3K9me2 % inhibition, single well of triplicate): 10%
- inhibition at 0.1 µM ([10]; 0.1 uM, n=3, read-out: H3K9me2 % inhibition, average): 25.8%
- inhibition at 0.1 µM ([10]; 0.1 uM, read-out: H3K9me2 % inhibition, single well of triplicate): 24.6%
- inhibition at 0.3 µM ([10]; 0.3 uM, n=3, read-out: H3K9me2 % inhibition, average): 40.8%
- inhibition at 0.3 µM ([10]; 0.3 uM, read-out: H3K9me2 % inhibition, single well of triplicate): 41.1%
- inhibition at 1 µM ([10]; 1 uM, n=3, read-out: H3K9me2 % inhibition, average): 45.2%
- inhibition at 1 µM ([10]; 1 uM, read-out: H3K9me2 % inhibition, single well of triplicate): 44.9%
- inhibition at 3 µM ([10]; 3 uM, n=3, read-out: H3K9me2 % inhibition, average): 48.5%
- inhibition at 3 µM ([10]; 3 uM, read-out: H3K9me2 % inhibition, single well of triplicate): 47.8%
- cell viability as measured by total histone H3 ([10]; versus no treatment): No difference in cell viability
- IC50 at 7 day [11]: 400 nM
- IC50 at 5 day [12]: 700 nM
- IC50 at 12 day [13]: 100 nM
- IC50 at 12 day [14]: 600 nM
- IC50 at 5 day [15]: 500 nM
- IC50 at 5 day [16]: 3100 nM
- IC50 at 5 day [17]: 1100 nM
- IC50 at 7 day [18]: 1900 nM
- IC50 at 5 day [19]: 1700 nM
- IC50 at 5 day [20]: 200 nM
- IC50 at 7 day [21]: 200 nM
- IC50 at 7 day [22]: 600 nM
- IC50 at 5 day [23]: 3900 nM
- IC50 at 5 day [24]: 6500 nM
- IC50 at 7 day [25]: 1200 nM
- effect on PBMC viability (Caspase 3/7 activity and CellTiter Glo) [26]: did at higher concentrations
- IC50 at 7 day [27]: 4400 nM
- IC50 at 5 day [28]: 4600 nM
- IC50 at 5 day [29]: 5600 nM
- IC50 at 5 day [30]: 4900 nM
- IC50 at 5 day [31]: 4400 nM
- IC50 at 5 day [32]: 600 nM
